Data reported in patent publication US20240343704A1, “HALO-SUBSTITUTED AMINO PYRIDINE COMPOUNDS AS INHIBITORS OF THE HAEMATOPOIETIC PROGENITOR KINASE 1 (HPK1)” (priority 2021, published 2024).

target: T1, Recombinant (1-346) HPK1 (h) (Homo sapiens, UniProt Q92918); assay: HPK1 Human STE Kinase Enzymatic Radiometric Assay; type: biochemical; details: read-out: HPK1 IC50 nM Range*
T1 construct: Recombinant (1-346) HPK1 (h) is incubated with 8 mM MOPS pH 7.0
T1 sequence (Q92918 1-346): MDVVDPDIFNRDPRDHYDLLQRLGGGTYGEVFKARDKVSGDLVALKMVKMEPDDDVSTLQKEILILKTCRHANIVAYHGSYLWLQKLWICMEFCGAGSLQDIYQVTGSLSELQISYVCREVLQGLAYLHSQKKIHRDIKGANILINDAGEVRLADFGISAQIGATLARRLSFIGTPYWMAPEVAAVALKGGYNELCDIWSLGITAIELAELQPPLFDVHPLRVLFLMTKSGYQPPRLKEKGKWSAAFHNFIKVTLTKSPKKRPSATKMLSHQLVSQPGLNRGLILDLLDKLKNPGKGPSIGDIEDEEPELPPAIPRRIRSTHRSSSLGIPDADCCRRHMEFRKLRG
Experimental: A stock solution of 10 mM of test compound is prepared in DMSO. The compound plate was prepared by 3-fold and 9-point serial dilutions. […] The reaction is initiated by The addition of the Mg/ATP mix. After incubation for 40 minutes at RT, the reaction is stopped by the addition of phosphoric acid to a concentration of 0.5%.

IC50 [nM]	Compound
101 to 1000	CC(C)(N)c1cc(-c2cc(-c3ccc4c(c3)CCNC4=O)c(N)nc2F)ccc1F [I-625, 6-(2-amino-5-(3-(2-aminopropan-2-yl)-4-fluorophenyl)-6-fluoropyridin-3-yl)-3,4-dihydroisoquinolin-1(2H)-one]
101 to 1000	Cc1c[nH]c(=O)c2ccc(-c3cc(-c4ccc(F)c(CN(C)C)c4)c(F)nc3N)cc12 [I-626, 6-(2-amino-5-(3-((dimethylamino)methyl)-4-fluorophenyl)-6-fluoropyridin-3-yl)-4-methylisoquinolin-1(2H)-one]
101 to 1000	Cc1c[nH]c(=O)c2ccc(-c3cc(-c4cccc(CN(C)C)c4)c(F)nc3N)cc12 [I-627, 6-(2-amino-5-(3-((dimethylamino)methyl)phenyl)-6-fluoropyridin-3-yl)-4-methylisoquinolin-1(2H)-one]
11 to 100	Cc1c[nH]c(=O)c2ccc(-c3cc(-c4ccc5c(c4)[C@H](N(C)C)CCO5)c(F)nc3N)cc12 [I-628, (R)-6-(2-amnio-5-(4-(dimethylamino)chroman-6-yl)-6-fluoropyridin-3-yl)-4-methylisoquinolin-1(2H)-one]
101 to 1000	Cc1c[nH]c(=O)c2ccc(-c3cc(-c4ccc5c(c4)[C@H](N(C)C)CO5)c(F)nc3N)cc12 [I-629, (S)-6-(2-amino-5-(3-(dimethylamino)-2,3-dihydrobenzofuran-5-yl)-6-fluoropyridin-3-yl)-4-methylisoquinolin-1(2H)-one]
11 to 100	CN(C)[C@@H]1COc2ccc(-c3cc(-c4ccc5c(=O)[nH]cc(F)c5c4)c(N)nc3F)cc21 [I-630, (S)-6-(2-amino-5-(3-(dimethylamino)-2,3-dihydrobenzofuran-5-yl)-6-fluoropyridin-3-yl)-4-fluoroisoquinolin-1(2H)-one]
11 to 100	CN(C)[C@@H]1CCOc2ccc(-c3cc(-c4ccc5c(=O)[nH]cc(F)c5c4)c(N)nc3F)cc21 [I-631, (R)-6-(2-amino-5-(4-(dimethylamino)chroman-6-yl)-6-fluoropyridin-3-yl)-4-fluoroisoquinolin-1(2H)-one]
11 to 100	COc1ccc(-c2cc(-c3ccc4c(c3)CCNC4=O)c(N)nc2F)cc1C#N [I-632, 5-(6-amino-2-fluoro-5-(1-oxo-1,2,3,4-tetrahydroisoquinolin-6-yl)pyridin-3-yl)-2-methoxybenzonitrile]
11 to 100	CCN(C)Cc1cc(-c2cc(-c3ccc4c(=O)[nH]cc(F)c4c3)c(N)nc2F)ccc1OC [I-633, 6-(2-amino-5-(3-((ethyl(methyl)amino)methyl)-4-methoxyphenyl)-6-fluoropyridin-3-yl)-4-fluoroisoquinolin-1(2H)-one]
11 to 100	CCN(C)Cc1cc(-c2cc(-c3ccc4c(=O)[nH]cc(C)c4c3)c(N)nc2F)ccc1OC [I-634, 6-(2-amino-5-(3-((ethyl(methyl)amino)methyl)-4-methoxyphenyl)-6-fluoropyridin-3-yl)-4-methylisoquinolin-1(2H)-one]
0.1 to 10	Nc1nc(F)c(-c2ccc(N3CCN(CC4CC4)CC3)cc2)cc1-c1cc(F)c2c(c1)OCCNC2=O [I-635, 8-(2-amino-5-(4-(4-(cyclopropylmethyl)piperazin-1-yl)phenyl)-6-fluoropyridin-3-yl)-6-fluoro-3,4-dihydrobenzo[f][1,4]oxazepin-5(2H)-one]
0.1 to 10	CC(C)N1CCN(c2ccc(-c3cc(-c4cc(F)c5c(c4)OCCNC5=O)c(N)nc3F)cc2)CC1 [I-636, 8-(2-amino-6-fluoro-5-(4-(4-isopropylpiperazin-1-yl)phenyl)pyridin-3-yl)-6-fluoro-3,4-dihydrobenzo[f][1,4]oxazepin-5(2H)-one]
11 to 100	CC(C)N1CCN(c2ccc(-c3cc(-c4cc(F)c5c(c4)CNC5=O)c(N)nc3F)cc2)CC1 [I-637, 5-(2-amino-6-fluoro-5-(4-(4-isopropylpiperazin-1-yl)phenyl)pyridin-3-yl)-7-fluoroisoindolin-1-one]
101 to 1000	Cn1cnnc1CC1(c2cccc(-c3cc(-c4ccc5c(c4)CCNC5=O)c(N)nc3F)c2)COC1 [I-638, 6-(2-amino-6-fluoro-5-(3-(3-((4-methyl-4H-1,2,4-triazol-3-yl)methyl)oxetan-3-yl)phenyl)pyridin-3-yl)-3,4-dihydroisoquinolin-1(2H)-one]
> 1000	CC(C)N1CCN(c2ccc(-c3ccc(Nc4ccc5c(c4)CCNC5=O)nc3F)cc2)CC1 [I-639, 6-((6-fluoro-5-(4-(4-isoproylpiperazin-1-yl)phenyl)pyridin-2-yl)amino)-3,4-dihydroisoquinolin-1(2H)-one]
0.1 to 10	Nc1nc(F)c(-c2ccc(N3CCN(CC4CC4(F)F)CC3)cc2)cc1-c1ccc2c(c1)CCNC2=O (stereo not shown) [I-640, 6-(2-amino-5-(4-(4-((2,2-difluorocyclopropyl)methyl)piperazin-1-yl)phenyl)-6-fluoropyridin-3-yl)-3,4-dihydroisoquinolin-1(2H)-one]
0.1 to 10	Nc1nc(F)c(-c2ccc(N3CCN(CCCC(F)F)CC3)cc2)cc1-c1ccc2c(c1)CCNC2=O [I-641, 6-(2-amino-5-(4-(4-(4,4-difluorobutyl)piperazin-1-yl)phenyl)-6-fluoropyridin-3-yl)-3,4-dihydroisoquinolin-1(2H)-one]
11 to 100	CN1CCC[C@H]1c1cc(-c2cc(-c3ccc4c(c3)CCNC4=O)c(N)nc2F)ccc1C1CCOCC1 [I-642, (S)-6-(2-amino-6-fluoro-5-(3-(1-methylpyrrolidin-2-yl)-4-(tetrahydro-2H-pyran-4-yl)phenyl)pyridin-3-yl)-3,4-dihydroisoquinolin-1(2H)-one]
11 to 100	Cc1nc2cc(-c3cc(-c4ccc(C5CCOCC5)c([C@@H]5CCCN5)c4)c(F)nc3N)ccc2c(=O)[nH]1 [I-643, (S)-7-(2-amino-6-fluoro-5-(3-(pyrrolidin-2-yl)-4-(tetrahydro-2H-pyran-4-yl)phenyl)pyridin-3-yl)-2-methylquinazolin-4(3H)-one]
0.1 to 10	Nc1nc(F)c(-c2ccc(N3CCN(CCC4CC4(F)F)CC3)cc2)cc1-c1ccc2c(c1)CCNC2=O (stereo not shown) [I-644, 6-(2-amino-5-(4-(4-(2-(2,2-difluorocyclopropyl)ethyl)piperazin-1-yl)phenyl)-6-fluoropyridin-3-yl)-3,4-dihydroisoquinolin-1(2H)-one]
0.1 to 10	CN(C)Cc1cc(-c2cc(-c3ccc4c(c3)CCNC4=O)c(N)nc2F)ccc1C1CCOCC1 [I-645, 6-(2-amino-5-(3-((dimethylamino)methyl)-4-(tetrahydro-2H-pyran-4-yl)phenyl)-6-fluoropyridin-3-y)-3,4-dihydroisoquinolin-1(2H)-one]
0.1 to 10	Nc1nc(F)c(-c2cccc([C@@H]3CCCN3)c2)cc1-c1ccc2c(c1)CCNC2=O [I-646, (S)-6-(2-amino-6-fluoro-5-(3-(pyrrolidin-2-yl)phenyl)pyridin-3-yl)-3,4-dihydroisoquinolin-1(2H)-one]

target: Lck (h) (Homo sapiens, UniProt P06239); assay: Lck Human  Kinase Enzymatic Radiometric Assay; type: biochemical; details: ratio of Lck IC50 to HPK1 IC50
Sequence (P06239 whole entry): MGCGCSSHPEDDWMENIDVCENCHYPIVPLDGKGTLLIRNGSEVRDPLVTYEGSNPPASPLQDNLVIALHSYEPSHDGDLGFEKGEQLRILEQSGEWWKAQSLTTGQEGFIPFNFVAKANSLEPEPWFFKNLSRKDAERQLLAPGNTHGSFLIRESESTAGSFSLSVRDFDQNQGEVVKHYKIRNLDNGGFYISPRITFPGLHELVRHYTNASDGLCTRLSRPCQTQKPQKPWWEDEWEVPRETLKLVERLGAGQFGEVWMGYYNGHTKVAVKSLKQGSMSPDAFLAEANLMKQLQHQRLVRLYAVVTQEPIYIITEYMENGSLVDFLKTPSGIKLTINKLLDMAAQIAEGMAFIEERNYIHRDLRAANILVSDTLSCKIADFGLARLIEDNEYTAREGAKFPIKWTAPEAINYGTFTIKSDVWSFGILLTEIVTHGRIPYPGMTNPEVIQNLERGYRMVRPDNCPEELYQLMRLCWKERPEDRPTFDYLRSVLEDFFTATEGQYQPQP
Experimental: Lck (h) is incubated with 50 mM Tris pH 7.5, 0.1 mM EGTA, 0.1 mM Na3VO4, 250 uM KVEKIGEGTYGVVYK (Cdc2 peptide), 10 mM MgAcetate and [gamma-33P]-ATP (specific activity and concentration as required). The reaction is initiated by the addition of the Mg/ATP mix. After incubation for 40 minutes at RT, the reaction is stopped by the addition of phosphoric acid to a concentration of 0.5%. 10 uL of the reaction is then spotted onto a P30 filtermat and washed four times for 4 minutes in 0.425% phosphoric acid and once in methanol prior to drying and scintillation counting. For more details on the kinase assay procedures see: Gao, Y. et. al.; Biochem J., 451 (2): 313-328, 2013.

LcK IC50/HPK IC50 selectivity	Compound
323	Nc1nc(F)c(-c2ccc(N3C[C@H]4COC[C@H]4C3)cc2)cc1-c1ccc2c(c1)CCNC2=O
1603	Nc1nc(F)c(-c2ccc(C3CCNCC3)cc2)cc1-c1ccc2c(c1)CCNC2=O [drawing 2673]
2000	Nc1nc(F)c(-c2cnn(C3CCOCC3)c2)cc1-c1ccc2c(c1)CCNC2=O [drawing 2675]
769	Nc1nc(F)c(-c2ccc(N3CCCC3)cc2)cc1-c1ccc2c(c1)CCNC2=O [drawing 2677]
1250	Nc1nc(F)c(-c2ccc(N3CCCCC3)cc2)cc1-c1ccc2c(c1)CCNC2=O [drawing 2679]
1429	Nc1nc(F)c(-c2ccc(N3C[C@@H]4CCO[C@@H]4C3)cc2)cc1-c1ccc2c(c1)CCNC2=O [drawing 2683]
2580	Nc1nc(F)c(-c2ccc(N3CCNCC3)c(C(F)(F)F)c2)cc1-c1ccc2c(c1)CCNC2=O [drawing 2685]
1429	Nc1nc(F)c(-c2ccc3c(c2)OCCCO3)cc1-c1ccc2c(c1)CCNC2=O [drawing 2687]
1480	Nc1nc(F)c(-c2ccc(N3CCN4CCCC4C3)cc2)cc1-c1ccc2c(c1)CCNC2=O (stereo not shown) [drawing 2689]
1073	Nc1nc(F)c(-c2ccc(N3CCCN4CCCC4C3)cc2)cc1-c1ccc2c(c1)CCNC2=O (stereo not shown) [drawing 2691]

same assay, conditions: read-out: Lck IC50 nM Range*

IC50 [nM]	Compound
> 1000	Nc1nc(F)c(-c2ccc(N3CCOCC3)cc2)cc1-c1ccc2c(c1)CCNC2=O [I-16, 6-(2-amino-6-fluoro-5-(4-morpholinophenyl)pyridin-3-yl)-3,4-dihydroisoquinolin-1(2H)-one]
> 1000	Nc1nc(F)c(-c2ccc(N3CCN(CCCC(F)F)CC3)cc2)cc1-c1cc2c(cc1F)C(=O)NCC2 [I-441, 6-(2-amino-5-(4-(4-(4,4-difluorobutyl)piperazin-1-yl)phenyl)-6-fluoropyridin-3-yl)-7-fluoro-3,4-dihydroisoquinolin-1(2H)-one]
